Measurements reported in patent US6630469B2, “5-HT7 receptor antagonists” (Bristol-Myers Squibb Company, priority 2000, dated 2003).

Biological target: T1, human 5-HT7 receptor (Homo sapiens, UniProt P34969)
T1 construct: expressed in transfected cells; host or cells: CHO cells
Assay: 5-HT7 Receptor Binding Assay
Conditions: membranes of CHO cells expressing human 5-HT7 receptor; 1 nM 3H-5-carboxamidotryptamine; 25° C., 60 minutes
Outline: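 Competition against 1 nM ^3H-5-carboxamidotryptamine over 0.1–1000 nM compound, 60 min, 25° C, 50 mM HEPES, 30 ug membrane protein from CHO cells expressing the human receptor. 10 uM serotonin defined non-specific binding. Bound label counted after filtration; IC50 from non-linear regression.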

T1 sequence (P34969 whole entry): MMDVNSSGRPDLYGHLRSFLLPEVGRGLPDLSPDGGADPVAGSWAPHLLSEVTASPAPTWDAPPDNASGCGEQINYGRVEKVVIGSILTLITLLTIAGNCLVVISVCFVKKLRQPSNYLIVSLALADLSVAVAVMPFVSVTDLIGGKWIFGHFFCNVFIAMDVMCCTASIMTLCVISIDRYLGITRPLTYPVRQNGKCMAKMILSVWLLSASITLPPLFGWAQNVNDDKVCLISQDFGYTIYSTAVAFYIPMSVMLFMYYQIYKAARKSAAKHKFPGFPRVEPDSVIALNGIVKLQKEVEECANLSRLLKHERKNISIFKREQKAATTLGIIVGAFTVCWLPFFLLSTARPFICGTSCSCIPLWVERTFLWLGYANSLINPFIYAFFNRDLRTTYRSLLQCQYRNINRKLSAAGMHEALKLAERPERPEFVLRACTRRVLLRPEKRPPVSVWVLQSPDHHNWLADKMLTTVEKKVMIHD

Structure (SMILES) | IC50 [nM]
CC(Nc1ccnc(NCCc2cccc3c2OCO3)n1)c1ccccc1 (centres unmarked) [N^2-[2-(4-Benzodioxolyl)ethyl]-N^4-(1-phenylethyl)pyrimidine-2,4-diamine] | 101 to 200
Cc1cc(N[C@@H](C)c2ccccc2)nc(NCCc2ccc(Cl)cc2)n1 [N^2-[2-(4-Chlorophenyl)ethyl]-6-methyl-N^4-[(1S)-1-phenylethyl]pyrimidine-2,4-diamine] | ≤ 50
CC(Nc1ccnc(NCCc2ccc(Cl)cc2)n1)c1ccccc1 (centres unmarked) [N^2-[2-(4-Chlorophenyl)ethyl]-N^4-(1-phenylethyl)pyrimidine-2,4-diamine] | 51 to 100
CC(Nc1ccnc(NCCc2ccc(F)cc2)n1)c1ccccc1 (centres unmarked) [N^2-[2-(4-Fluorophenyl)ethyl]-N^4-(1-phenylethyl)pyrimidine-2,4-diamine] | ≤ 50
CC(Nc1ccnc(NCCc2ccc(O)cc2)n1)c1ccccc1 (centres unmarked) [N^2-[2-(4-Hydroxyphenyl)ethyl]-N^4-(1-phenylethyl)pyrimidine-2,4-diamine] | ≤ 50
COc1ccc(CCNc2nc(C)cc(N[C@@H](C)c3ccccc3)n2)cc1 [N^2-[2-(4-Methoxyphenyl)ethyl]-6-methyl-N^4-[(1S)-1-phenylethyl]pyrimidine-2,4-diamine] | 101 to 200
COc1ccc(CCNc2nccc(NC(C)c3ccccc3)n2)cc1 (centres unmarked) [N^2-[2-(4-Methoxyphenyl)ethyl]-N^4-(1-phenylethyl)pyrimidine-2,4-diamine] | 101 to 200
Cc1ccc(CCNc2nc(C)cc(N[C@@H](C)c3ccccc3)n2)cc1 [N^2-[2-(4-Methylphenyl)ethyl]-6-methyl-N^4-[(1S)-1-phenylethyl]pyrimidine-2,4-diamine] | ≤ 50
Cc1ccc(CCNc2nccc(NC(C)c3ccccc3)n2)cc1 (centres unmarked) [N^2-[2-(4-Methylphenyl)ethyl]-N^4-(1-phenylethyl)pyrimidine-2,4-diamine] | ≤ 50
CC(C)(Nc1ccnc(NCCc2ccccc2)n1)c1ccccc1 [N^4-(1-Methyl-1-phenyl)ethyl)-N^2-(2-phenylethyl)pyrimidine-2,4-diamine] | ≤ 50
CC(CNc1nccc(NC(C)c2ccccc2)n1)c1ccccc1 (centres unmarked) [N^4-(1-Phenylethyl)-N^2-(2-phenylpropyl)pyrimidine-2,4-diamine] | 51 to 100
CC(Nc1ccnc(NCCCc2ccccc2)n1)c1ccccc1 (centres unmarked) [N^4-(1-Phenylethyl)-N^2-(3-phenylpropyl)pyrimidine-2,4-diamine] | 51 to 100
CC(Nc1ccnc(NCCc2cccc(C(F)(F)F)c2)n1)c1ccccc1 (centres unmarked) [N^4-(1-Phenylethyl)-N^2-{2-[3-(trifluoromethyl)phenyl]ethyl}pyrimidine-2,4-diamine] | 51 to 100
Clc1ccc(CNc2ccnc(NCCc3ccccc3)n2)c(Cl)c1 [N^4-(2,4-Dichlorophenylmethyl)-N^2-(2-phenylethyl)pyrimidine-2,4-diamine] | 51 to 100
Clc1ccccc1CNc1ccnc(NCCc2ccccc2)n1 [N^4-(2-Chlorophenylmethyl)-N^2-(2-phenylethyl)pyrimidine-2,4-diamine] | ≤ 50
COc1ccccc1CNc1ccnc(NCCc2ccccc2)n1 [N^4-(2-Methoxyphenylmethyl)-N^2-(2-phenylethyl)pyrimidine-2,4-diamine] | ≤ 50
Clc1ccc(CNc2ccnc(NCCOc3ccccc3)n2)cc1Cl [N^4-(3,4-Dichlorophenylmethyl)-N^2-(2-phenoxyethyl)pyrimidine-2,4-diamine] | 101 to 200
Clc1ccc(CNc2ccnc(NCCc3ccccc3)n2)cc1Cl [N^4-(3,4-Dichlorophenylmethyl)-N^2-(2-phenylethyl)pyrimidine-2,4-diamine] | 101 to 200
Fc1ccc(CNc2ccnc(NCCOc3ccccc3)n2)cc1F [N^4-(3,4-Difluorophenylmethyl)-N^2-(2-phenoxyethyl)pyrimidine-2,4-diamine] | ≤ 50
Fc1ccc(CNc2ccnc(NCCc3ccccc3)n2)cc1F [N^4-(3,4-Difluorophenylmethyl)-N^2-(2-phenylethyl)pyrimidine-2,4-diamine] | ≤ 50

More lines, now with the values ahead:

IC50 [nM] | Structure (SMILES)
101 to 200 | Fc1cc(F)cc(CNc2ccnc(NCCOc3ccccc3)n2)c1 [N^4-(3,5-Difluorophenylmethyl)-N^2-(2-phenoxyethyl)pyrimidine-2,4-diamine]
101 to 200 | COc1cc(CNc2ccnc(NCCOc3ccccc3)n2)cc(OC)c1 [N^4-(3,5-Dimethoxyphenylmethyl)-N^2-(2-phenoxyethyl)pyrimidine-2,4-diamine]
≤ 50 | Fc1ccc(CNc2ccnc(NCCOc3ccccc3)n2)cc1Cl [N^4-(3-Chloro-4-fluorophenylmethyl)-N^2-(2-phenoxyethyl)pyrimidine-2,4-diamine]
≤ 50 | Fc1ccc(CNc2ccnc(NCCc3ccccc3)n2)cc1Cl [N^4-(3-Chloro-4-fluorophenylmethyl)-N^2-(2-phenylethyl)pyrimidine-2,4-diamine]
≤ 50 | Cc1ccc(CNc2ccnc(NCCOc3ccccc3)n2)cc1Cl [N^4-(3-Chloro-4-methylphenylmethyl)-N^2-(2-phenoxyethyl)pyrimidine-2,4-diamine]
101 to 200 | Cc1ccc(CNc2ccnc(NCCc3ccccc3)n2)cc1Cl [N^4-(3-Chloro-4-methylphenylmethyl)-N^2-(2-phenylethyl)pyrimidine-2,4-diamine]
≤ 50 | Clc1cccc(CNc2ccnc(NCCOc3ccccc3)n2)c1 [N^4-(3-Chlorophenylmethyl)-N^2-(2-phenoxyethyl)pyrimidine-2,4-diamine]
101 to 200 | Clc1cccc(CNc2ccnc(NCCc3ccccc3)n2)c1 [N^4-(3-Chlorophenylmethyl)-N^2-(2-phenylethyl)pyrimidine-2,4-diamine]
51 to 100 | Fc1cccc(CNc2ccnc(NCCOc3ccccc3)n2)c1 [N^4-(3-Fluorophenylmethyl)-N^2-(2-phenoxyethyl)pyrimidine-2,4-diamine]
≤ 50 | Fc1cccc(CNc2ccnc(NCCc3ccccc3)n2)c1 [N^4-(3-Fluorophenylmethyl)-N^2-(2-phenylethyl)pyrimidine-2,4-diamine]
≤ 50 | COc1cccc(CNc2ccnc(NCCc3ccccc3)n2)c1 [N^4-(3-Methoxyphenylmethyl)-N^2-(2-phenylethyl)pyrimidine-2,4-diamine]
≤ 50 | Cc1cccc(CNc2ccnc(NCCOc3ccccc3)n2)c1 [N^4-(3-Methylphenylmethyl)-N^2-(2-phenoxyethyl)pyrimidine-2,4-diamine]
≤ 50 | Cc1cccc(CNc2ccnc(NCCc3ccccc3)n2)c1 [N^4-(3-Methylphenylmethyl)-N^2-(2-phenylethyl)pyrimidine-2,4-diamine]
≤ 50 | c1ccc(OCCNc2nccc(NCc3cccc4c3OCO4)n2)cc1 [N^4-(4-Benzodioxolylmethyl)-N^2-(2-phenoxyethyl)pyrimidine-2,4-diamine]
≤ 50 | c1ccc(CCNc2nccc(NCc3cccc4c3OCO4)n2)cc1 [N^4-(4-Benzodioxolylmethyl)-N^2-(2-phenylethyl)pyrimidine-2,4-diamine]
≤ 50 | Clc1ccc(CNc2ccnc(NCCOc3ccccc3)n2)cc1 [N^4-(4-Chlorophenylmethyl)-N^2-(2-phenoxyethyl)pyrimidine-2,4-diamine]
≤ 50 | Clc1ccc(CNc2ccnc(NCCc3ccccc3)n2)cc1 [N^4-(4-Chlorophenylmethyl)-N^2-(2-phenylethyl)pyrimidine-2,4-diamine]
≤ 50 | COc1ccc(CNc2ccnc(NCCc3ccccc3)n2)cc1 [N^4-(4-Methoxyphenylmethyl)-N^2-(2-phenylethyl)pyrimidine-2,4-diamine]
